# Results: US4770705A, “Salts of alkyl-2-benzimidazole-carbamate and fungicidal compositions thereof suitable for paints and plaster” (Schulke & Mayr GmbH, priority 1986, dated 1988)
# What was measured:
# Aspergillus niger = assay: Test Method A: fungus formation on treated paint/plaster discs, Aspergillus niger; format: cell-based
# Protocol: (§1) The biological effectiveness of a product according to Example 1 was tested both in an aqueous acrylate paint and in an aqueous plaster dispersion as follows:
# (§2) To 50 grams of a usual acrylic paint (for composition see Table I) and of a plaster (for composition see Table II) composition to be tested, the fungicidal compound of Example 1 was added in different concentrations. After extensive stirring, the samples were coated on a sheet of pasteboard and dried for 24 hours at room temperature and for an additional 24 hours at 40° C. These paper samples were then subjected for 72 hours to a water sprayout test whereby 1 liter of water per minute was flushed over the paper supports. After drying for 24 hours at room temperature and for 24 hours at 40° C., the test samples were irradiated for 24 hours with ultraviolet light. Test discs having a diameter of 50 mm were cut from the pasteboard and sterilized with ethylene oxide.
# (§3) Sabouraud-plates were seeded with a 0.2 ml suspension of either Aspergillus niger or Alternaria containing about 10^7 germs per ml. The test discs were put onto the plates and incubated at a temperature of 25° to 27° C. for a period of 3 weeks. After a period of 1 or 2 or 3 weeks, respectively, the contamination was rated as follows:
# (§4) 1=very small fungus formation (0-5% of the entire surface)
# (§5) 2=weak fungus formation (5-25% of the entire surface)
# (§6) 3=medium fungus formation (25 to 50% of the entire surface)
# (§7) 4=strong fungus formation (50-99% of the entire surface)
# (§8) 5=no inhibition of fungus formation.
# (§9) A known tetradecane-sulfonic acid adduct of 2-methoxycarbonylaminobenzimidazole (BCM), CARBENDASULF (Hoechst AG, Frankfurt/Main, Germany; prepared according to Example 1 of U.S. Pat. No. 4,046,906), was used for comparison.
# Alternaria = assay: Test Method A: fungus formation on treated paint/plaster discs, Alternaria; format: cell-based
# Protocol: as §1, §2, §3, §4, §5, §6, §7, §8, §9
# [1] = acrylic dispersion paint, conc. 0.01%, 1 week
# [2] = acrylic dispersion paint, conc. 0.01%, 2 weeks
# [3] = acrylic dispersion paint, conc. 0.01%, 3 weeks
# [4] = acrylic dispersion paint, conc. 0.02%, 1 week
# [5] = acrylic dispersion paint, conc. 0.02%, 2 weeks
# [6] = acrylic dispersion paint, conc. 0.02%, 3 weeks
# [7] = acrylic dispersion paint, conc. 0.05%, 1 week
# [8] = acrylic dispersion paint, conc. 0.05%, 2 weeks
# [9] = acrylic dispersion paint, conc. 0.05%, 3 weeks
smiles,measurement,setting,value
"COC(=O)Nc1nc2ccccc2[nH]1 [CARBENDASULF, tetradecane-sulfonic acid adduct of 2-methoxycarbonylaminobenzimidazole (BCM)]",contamination rating (fungus formation),Aspergillus niger; [1],3 (medium fungus formation (25 to 50% of the entire surface))
same,contamination rating (fungus formation),Aspergillus niger; [2],3 (medium fungus formation (25 to 50% of the entire surface))
same,contamination rating (fungus formation),Aspergillus niger; [3],4 (strong fungus formation (50-99% of the entire surface))
same,contamination rating (fungus formation),Aspergillus niger; [4],2 (weak fungus formation (5-25% of the entire surface))
same,contamination rating (fungus formation),Aspergillus niger; [5],2 (weak fungus formation (5-25% of the entire surface))
same,contamination rating (fungus formation),Aspergillus niger; [6],3 (medium fungus formation (25 to 50% of the entire surface))
same,contamination rating (fungus formation),Aspergillus niger; [7],1 (very small fungus formation (0-5% of the entire surface))
same,contamination rating (fungus formation),Aspergillus niger; [8],1 (very small fungus formation (0-5% of the entire surface))
same,contamination rating (fungus formation),Aspergillus niger; [9],2 (weak fungus formation (5-25% of the entire surface))
same,contamination rating (fungus formation),"Aspergillus niger; plaster, conc. 0.01%, 1 week",2 (weak fungus formation (5-25% of the entire surface))
same,contamination rating (fungus formation),"Aspergillus niger; plaster, conc. 0.01%, 2 weeks",3 (medium fungus formation (25 to 50% of the entire surface))
same,contamination rating (fungus formation),"Aspergillus niger; plaster, conc. 0.01%, 3 weeks",3 (medium fungus formation (25 to 50% of the entire surface))
same,contamination rating (fungus formation),"Aspergillus niger; plaster, conc. 0.02%, 1 week",1 (very small fungus formation (0-5% of the entire surface))
same,contamination rating (fungus formation),"Aspergillus niger; plaster, conc. 0.02%, 2 weeks",2 (weak fungus formation (5-25% of the entire surface))
same,contamination rating (fungus formation),"Aspergillus niger; plaster, conc. 0.02%, 3 weeks",3 (medium fungus formation (25 to 50% of the entire surface))
same,contamination rating (fungus formation),"Aspergillus niger; plaster, conc. 0.05%, 1 week",1 (very small fungus formation (0-5% of the entire surface))
same,contamination rating (fungus formation),"Aspergillus niger; plaster, conc. 0.05%, 2 weeks",1 (very small fungus formation (0-5% of the entire surface))
same,contamination rating (fungus formation),"Aspergillus niger; plaster, conc. 0.05%, 3 weeks",2 (weak fungus formation (5-25% of the entire surface))
same,contamination rating (fungus formation),Alternaria; [1],3 (medium fungus formation (25 to 50% of the entire surface))
same,contamination rating (fungus formation),Alternaria; [2],3 (medium fungus formation (25 to 50% of the entire surface))
same,contamination rating (fungus formation),Alternaria; [3],4 (strong fungus formation (50-99% of the entire surface))
same,contamination rating (fungus formation),Alternaria; [4],2 (weak fungus formation (5-25% of the entire surface))
same,contamination rating (fungus formation),Alternaria; [5],2 (weak fungus formation (5-25% of the entire surface))
same,contamination rating (fungus formation),Alternaria; [6],3 (medium fungus formation (25 to 50% of the entire surface))
same,contamination rating (fungus formation),Alternaria; [7],1 (very small fungus formation (0-5% of the entire surface))
same,contamination rating (fungus formation),Alternaria; [8],2 (weak fungus formation (5-25% of the entire surface))
same,contamination rating (fungus formation),Alternaria; [9],2 (weak fungus formation (5-25% of the entire surface))
same,contamination rating (fungus formation),"Alternaria; plaster, conc. 0.01%, 1 week",2 (weak fungus formation (5-25% of the entire surface))
same,contamination rating (fungus formation),"Alternaria; plaster, conc. 0.01%, 2 weeks",3 (medium fungus formation (25 to 50% of the entire surface))
same,contamination rating (fungus formation),"Alternaria; plaster, conc. 0.01%, 3 weeks",4 (strong fungus formation (50-99% of the entire surface))
same,contamination rating (fungus formation),"Alternaria; plaster, conc. 0.02%, 1 week",1 (very small fungus formation (0-5% of the entire surface))
same,contamination rating (fungus formation),"Alternaria; plaster, conc. 0.02%, 2 weeks",2 (weak fungus formation (5-25% of the entire surface))
same,contamination rating (fungus formation),"Alternaria; plaster, conc. 0.02%, 3 weeks",4 (strong fungus formation (50-99% of the entire surface))
same,contamination rating (fungus formation),"Alternaria; plaster, conc. 0.05%, 1 week",1 (very small fungus formation (0-5% of the entire surface))
same,contamination rating (fungus formation),"Alternaria; plaster, conc. 0.05%, 2 weeks",2 (weak fungus formation (5-25% of the entire surface))
same,contamination rating (fungus formation),"Alternaria; plaster, conc. 0.05%, 3 weeks",2 (weak fungus formation (5-25% of the entire surface))
